Some test systems named below: HL-60(TB) leukemia; ACHN renal; SK-MEL-2 melanoma; K-562 leukemia; SW-620 colon; U251 CNS; HCT-116 colon; HT29 colon; HOP-92 NSCLC; RPMI-8226 leukemia.
Holding throughout (assay): NCI tumour cell line growth inhibition, 48 h

“And” between values parts separate entries of the source, which are not always exact repeats. Identical values can stand only once.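 Following 48 hours of exposure in 96-well plates, responses at five concentrations were used to interpolate endpoints linearly. Here, GI50 denotes the concentration required for 50% inhibition of growth. TGI is the concentration that stops growth completely.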 A value given as a limit tells only on which side of the number the result lay.

For the molecule `Cn1cc(-c2nc(-c3c[nH]c4ncccc34)cs2)c2cc(F)ccc21`, the GI50 in the test with HL-60(TB) leukemia is 3.21 µM; with ACHN renal, 3.21 µM; in the test with SK-MEL-2 melanoma it was 3.81 µM; with K-562 leukemia, 2.19 µM; with SW-620 colon it was 2.67 µM; in the test with U251 CNS it was 2.43 µM. Further, the GI50 with HCT-116 colon was 2.56 µM; in the test with HT29 colon it was 2.1 µM; with HOP-92 NSCLC, 1.92 µM; with RPMI-8226 leukemia, 2.81 µM. The TGI with HL-60(TB) leukemia was 15.6 µM; in the test on ACHN renal it was 14.7 µM; in the test on SK-MEL-2 melanoma, 11.1 µM; in the test on K-562 leukemia, greater than 22.9 µM; in the test on SW-620 colon it was 9.73 µM; in the test with U251 CNS, 8.08 µM. Besides, the TGI in the test on HCT-116 colon was 7.22 µM; in the test on HT29 colon, 4.53 µM; with HOP-92 NSCLC, 5.79 µM; in the test on RPMI-8226 leukemia, 48.3 µM.

`C=C1C(=O)O[C@@H]2C[C@@]3(C)CCC[C@H](C)C3=C[C@H]12`: the TGI in the test with HL-60(TB) leukemia was 5.52 µM; in the test with ACHN renal, 21.6 µM; in the test with SK-MEL-2 melanoma it was 14.7 µM; with K-562 leukemia it was 31.2 µM; in the test on SW-620 colon it was 12.3 µM; in the test on U251 CNS it was 21.5 µM. The TGI in the test with HCT-116 colon is 16.2 µM; in the test on HT29 colon, 16.1 µM; in the test with HOP-92 NSCLC it was 11.2 µM; in the test with RPMI-8226 leukemia, 6.21 µM.

Consider `O=C1NN(c2ccc(C(=O)O)cc2)C(=O)/C1=C\c1ccc([N+](=O)[O-])o1`, for which the GI50 in the test with HL-60(TB) leukemia was 34.5 µM; in the test with ACHN renal it was 24.4 µM; with SK-MEL-2 melanoma it was 83.1 µM; in the test on K-562 leukemia it was 27.3 µM; with SW-620 colon it was 20 µM; in the test with U251 CNS, 79.9 µM. Also, the GI50 in the test with HCT-116 colon is 20.8 µM; in the test on HT29 colon it was 18.6 µM; in the test on HOP-92 NSCLC, 29 µM; in the test on RPMI-8226 leukemia, 30.6 µM. Moreover, the TGI in the test with HL-60(TB) leukemia is 91.7 µM; in the test on ACHN renal, 55.3 µM; with SK-MEL-2 melanoma, greater than 100 µM; in the test with K-562 leukemia, 72.1 µM; in the test with SW-620 colon, 47.3 µM; with U251 CNS, greater than 100 µM. Also, the TGI in the test with HCT-116 colon is 42.8 µM; in the test on HT29 colon it was 35.8 µM; with HOP-92 NSCLC it was 74.8 µM; with RPMI-8226 leukemia, 83.8 µM.

As for `O=c1cc(-c2cccc(C(F)(F)F)c2)[nH]c2cc3c(cc12)OCO3`, the TGI in the test with HL-60(TB) leukemia is 0.705 µM; in the test with ACHN renal, 50 µM and > 100 µM; in the test with SK-MEL-2 melanoma, 3.34 µM; with K-562 leukemia it was greater than 100 µM; with SW-620 colon it was 50 µM and > 100 µM; with HCT-116 colon it was 19.1 µM and 29.4 µM. The TGI in the test with HT29 colon is 40.8 µM and 13 µM; in the test with HOP-92 NSCLC, 50 µM; in the test with RPMI-8226 leukemia it was greater than 100 µM. Further, the GI50 was 30.5 µM in the test on ACHN renal; 0.326 µM with SW-620 colon; 0.145 µM in the test with U251 CNS; 1.98 µM and 0.482 µM in the test on HCT-116 colon; 3.11 µM with HT29 colon.

With `CCC(C)(C)C(=O)O[C@H]1C[C@@H](C)C=C2C=C[C@H](C)[C@H](CC[C@@H]3C[C@@H](O)CC(=O)O3)[C@H]21`, the GI50 in the test with HL-60(TB) leukemia is 6.02 µM; in the test with ACHN renal it was 0.882 µM; in the test on SK-MEL-2 melanoma it was 0.765 µM; with K-562 leukemia, 5.53 µM; with SW-620 colon it was 3.58 µM; in the test with U251 CNS, 0.371 µM. The GI50 is 1.25 µM in the test on HCT-116 colon, 0.0335 µM in the test with HOP-92 NSCLC and 3.79 µM in the test with RPMI-8226 leukemia. The TGI was 20.8 µM and > 30 µM in the test on HL-60(TB) leukemia; 10.3 µM and 2.38 µM with ACHN renal; 5.92 µM and 1.81 µM in the test on SK-MEL-2 melanoma; 22.8 µM and > 30 µM with K-562 leukemia; 16.6 µM and > 30 µM in the test with SW-620 colon; 5.44 µM and > 30 µM in the test on U251 CNS. Further, the TGI was 5.43 µM and 6.98 µM with HCT-116 colon; 20.2 µM and 21.3 µM in the test with HT29 colon; 28.5 µM and > 30 µM in the test on RPMI-8226 leukemia.

Turning to `COc1cc(/C=C2\[C@H]3c4c(c(OC)c(C)c(OC)c4OC)C[C@@H](C(=O)N2Cc2ccccc2)N3C(=O)OCC(C)C)c(OC)c(C)c1OC`, the TGI with HL-60(TB) leukemia is greater than 100 µM; in the test with ACHN renal it was greater than 100 µM; in the test with SK-MEL-2 melanoma it was greater than 100 µM; with K-562 leukemia it was greater than 100 µM; in the test on SW-620 colon, greater than 31.6 µM; with U251 CNS, greater than 100 µM. Besides, the TGI in the test on HCT-116 colon, with HT29 colon, in the test with HOP-92 NSCLC and in the test with RPMI-8226 leukemia was greater than 100 µM throughout.

Turning to `Oc1ccc2cc(Br)ccc2c1-c1c(O)ccc2cc(Br)ccc12`, the GI50 was 2.87 µM in the test with HL-60(TB) leukemia; 3.02 µM in the test with ACHN renal; 3.82 µM with SK-MEL-2 melanoma; 2.88 µM in the test with K-562 leukemia; 2.64 µM with SW-620 colon; 3.93 µM in the test with U251 CNS. Moreover, the GI50 in the test on HCT-116 colon was 1.95 µM; in the test with HT29 colon, 1.75 µM; in the test on HOP-92 NSCLC it was 3.01 µM; in the test with RPMI-8226 leukemia, 2.81 µM. Also, the TGI was 8.6 µM in the test on HL-60(TB) leukemia; 11.3 µM in the test on ACHN renal; 13.5 µM in the test with SK-MEL-2 melanoma; 11.1 µM in the test on K-562 leukemia; 7.41 µM in the test with SW-620 colon; 12.9 µM in the test on U251 CNS. Also, the TGI in the test on HCT-116 colon amounted to 4.01 µM; in the test with HT29 colon, 3.34 µM; in the test on HOP-92 NSCLC it was 7.93 µM; in the test on RPMI-8226 leukemia it was 9.1 µM.

Consider `COc1ccccc1OCC(=O)Nc1sc2c(c1C(N)=O)CCC2`, for which the GI50 with HL-60(TB) leukemia, with ACHN renal, in the test with K-562 leukemia, in the test on SW-620 colon, in the test on U251 CNS and in the test with HCT-116 colon was greater than 100 µM each time. Moreover, the GI50 in the test on HT29 colon, with HOP-92 NSCLC and in the test with RPMI-8226 leukemia was greater than 100 µM in each case. In addition, the TGI with HL-60(TB) leukemia is greater than 100 µM; in the test on ACHN renal, greater than 100 µM; in the test on SK-MEL-2 melanoma, 68 µM; with K-562 leukemia, greater than 100 µM; in the test with SW-620 colon it was greater than 100 µM; with U251 CNS it was greater than 100 µM. Also, the TGI with HCT-116 colon, in the test with HT29 colon, with HOP-92 NSCLC and in the test with RPMI-8226 leukemia was greater than 100 µM each time.

These data come from PubChem BioAssay (NCI).
